In general, IC50 refers to the concentration that inhibits the measured activity by half. Low readings indicate greater potency, high ones weaker potency.

This experiment deals with T1, FXR ligand binding domain (Homo sapiens, UniProt Q96RI1).
T1 sequence (Q96RI1 1-486): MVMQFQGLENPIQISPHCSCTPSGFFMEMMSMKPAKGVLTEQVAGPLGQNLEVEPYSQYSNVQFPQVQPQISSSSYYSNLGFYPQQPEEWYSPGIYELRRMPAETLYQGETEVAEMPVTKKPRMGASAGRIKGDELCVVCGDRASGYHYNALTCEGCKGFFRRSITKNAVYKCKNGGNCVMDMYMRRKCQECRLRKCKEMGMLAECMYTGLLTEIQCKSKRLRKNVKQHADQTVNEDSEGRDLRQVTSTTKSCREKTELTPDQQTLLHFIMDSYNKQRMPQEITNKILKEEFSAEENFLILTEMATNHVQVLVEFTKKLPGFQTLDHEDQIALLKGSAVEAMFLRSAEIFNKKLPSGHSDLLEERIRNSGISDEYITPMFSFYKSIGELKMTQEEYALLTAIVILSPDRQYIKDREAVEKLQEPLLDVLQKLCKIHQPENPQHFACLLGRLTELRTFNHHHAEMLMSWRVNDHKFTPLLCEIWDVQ
Kind of experiment: Radioligand binding assay (radioligand displacement, scintillation proximity). The following applies: GST-FXR LBD fusion protein on SPA beads, radioligand 2,N-dicyclohexyl-2-[2-(2,4 dimethoxy-phenyl)-benzoimidazol-1-yl]-acetamide, RT 30 minutes. The procedure: The following tests were carried out in order to determine the activity of the compounds of formula I. Background information on the binding assay can be found in: Nichols J S et al. “Development of a scintillation proximity assay for peroxisome proliferator-activated receptor gamma ligand binding domain”, (1998) Anal. Biochem. 257: 112-119.
Bacterial and mammalian expression vectors were constructed to produce glutathione-s-transferase (GST) and Gal4 DNA binding domain (GAL) proteins fused to the ligand binding domain (LBD) of human FXR (aa 193-473). To accomplish this, the portions of the sequences encoding the FXR LBD were amplified by polymerase chain reaction (PCR) from a full-length clone by PCR and then subcloned into the plasmid vectors. The final clone was verified by DNA sequence analysis.
The induction, expression, and subsequent purification of GST-LBD fusion protein was performed in E. coli strain BL21(pLysS) cells by standard methods (Current Protocols in Molecular Biology, Wiley Press, ed. Ausubel et al).
Radioligand Binding Assay
Binding of test substances to the FXR ligand binding domain was assessed in a radioligand displacement assay. The assay was performed in a buffer consisting of 50 mM Hepes, pH 7.4, 10 mM NaCl, 5 mM MgCl2. For each reaction well in a 96-well plate, 40 nM of GST-FXR LBD fusion protein was bound to 10 μg glutathione ytrium silicate SPA beads (Pharmacia Amersham) in a final volume of 50 μl by shaking. A radioligand (eg. 40 nM) of 2,N-dicyclohexyl-2-[2-(2,4 dimethoxy-phenyl)-benzoimidazol-1-yl]-acetamide) was added, and the reaction incubated at RT for 30 minutes in the presence of test compounds followed by scintillation proximity counting. All binding assays were performed in 96-well plates and the amount of bound ligand was measured on a Packard TopCount using OptiPlates (Packard). Dose response curves were performed within a range of concentration from 6×10^−9 M to 2.5×10^−5 M.
(In general: Loss of bound radioactivity is the signal in a displacement assay; it reports binding, not function.)
The compound `O=C(Nc1ccc(F)cc1F)C(c1c2c(nn1-c1ccc(Cl)cc1)CCCC2)C1CCCCC1` (racemic) [Example 14, [rac]-2-[2-(4-Chloro-phenyl)-4,5,6,7-tetrahydro-2H-indazol-3-yl]-2-cyclohexyl-N-(2,4-difluoro-phenyl)-acetamide] displayed a half-maximal inhibitory concentration (IC50) of 2830 nM.
Consider `O=C(Nc1ccc(OC2(C(=O)O)CC2)cc1F)C(c1c2c(nn1-c1ccc(Cl)cc1)CCCC2)C1CCCCC1` (racemic) [Example 16, [rac]-1-(4-{2-[2-(4-Chloro-phenyl)-4,5,6,7-tetrahydro-2H-indazol-3-yl]-2-cyclohexyl-acetylamino}-3-fluoro-phenoxy)-cyclopropanecarboxylic acid], for which the half-maximal inhibitory concentration (IC50) turned out to be 223 nM.
For `COC(=O)c1ccc(COC(c2c3ccccc3nn2-c2ccc(Cl)cc2)C2CCCCC2)cc1` (racemic) [Example 17], the concentration for half-maximal inhibition (IC50) is 7540 nM.
As to `O=C(O)c1ccc(COC(c2c3ccccc3nn2-c2ccc(Cl)cc2)C2CCCCC2)cc1` (racemic) [Example 18], the IC50 is 360 nM.
As to `O=C(O)c1ccc(NC(=O)C(c2c3c(nn2-c2ccc(Cl)cc2)CCCC3)C2CCCCC2)c(C(F)(F)F)c1` (racemic) [Example 20, [rac]-4-{2-[2-(4-Chloro-phenyl)-4,5,6,7-tetrahydro-2H-indazol-3-yl]-2-cyclohexyl-acetylamino}-3-trifluoromethyl-benzoic acid], the IC50 was determined as 330 nM.
The figure for `O=C(NC1CCCCC1)C(c1c2cc(F)c(F)cc2nn1-c1ccc(Cl)cc1)C1CCCCC1` (racemic) [Example 24, [rac]-2-[2-(4-Chloro-phenyl)-5,6-difluoro-2H-indazol-3-yl]-2,N-dicyclohexyl-acetamide] is 680 nM.
Consider `CC(C)(Oc1ccc(NC(=O)C(c2c3cc(F)c(F)cc3nn2-c2ccc(Cl)cc2)C2CCCCC2)c(F)c1)C(=O)O` (racemic) [Example 26, [rac]-2-(4-{2-[2-(4-Chloro-phenyl)-5,6-difluoro-2H-indazol-3-yl]-2-cyclohexyl-acetylamino}-3-fluoro-phenoxy)-2-methyl-propionic acid], for which the IC50 amounted to 570 nM.
As for `O=C(O)c1ccc(COC(c2c3cc(F)c(F)cc3nn2-c2ccc(Cl)cc2)C2CCCCC2)cc1` (racemic) [Example 27, [rac]-4-{[2-(4-Chloro-phenyl)-5,6-difluoro-2H-indazol-3-yl]-cyclohexyl-methoxymethyl}-benzoic acid], the IC50 stood at 245 nM.
The figure for `O=C(O)c1ccc(COC(c2c3c(nn2-c2ccc(Cl)cc2)CCCC3)C2CCCCC2)cc1` (racemic) [Example 28, [rac]-4-{[2-(4-Chloro-phenyl)-4,5,6,7-tetrahydro-2H-indazol-3-yl]-cyclohexyl-methoxymethyl}-benzoic acid] is 510 nM; for `Cc1cc(C(=O)O)cc(C)c1OCC(c1c2ccccc2nn1-c1ccc(Cl)cc1)C1CCCCC1` (racemic) [Example 29, [rac]-4-{2-[2-(4-Chloro-phenyl)-2H-indazol-3-yl]-2-cyclohexyl-ethoxy}-3,5-dimethyl-benzoic acid] it is 26 nM; for `Fc1cc(-c2nnn[nH]2)ccc1OCC(c1c2ccccc2nn1-c1ccc(Cl)cc1)C1CCCCC1` (racemic) [Example 31, [rac]-2-(4-Chloro-phenyl)-3-{1-cyclohexyl-2-[2-fluoro-4-(2H-tetrazol-5-yl)-phenoxy]-ethyl}-2H-indazole] it is 100 nM.
`O=C(O)c1ccc(NC(=O)C(c2c3cc(F)c(F)cc3nn2-c2ccc(Cl)cc2)C2CCCCC2)c(F)c1` (racemic) [Example 32, [rac]-4-{2-[2-(4-Chloro-phenyl)-5,6-difluoro-2H-indazol-3-yl]-2-cyclohexyl-acetylamino}-3-fluoro-benzoic acid] showed an IC50 of 1700 nM.
Under `Cc1cc(C(=O)O)cc(C)c1OC(c1c2cc(F)c(F)cc2nn1-c1ccc(Cl)cc1)C1CCCCC1` (racemic) [Example 34, [rac]-4-{[2-(4-Chloro-phenyl)-5,6-difluoro-2H-indazol-3-yl]-cyclohexyl-methoxy}-3,5-dimethyl-benzoic acid] stands 2130 nM; under `N#Cc1ccc(OC(c2c3cc(F)c(F)cc3nn2-c2ccc(Cl)cc2)C2CCCCC2)c(F)c1` (racemic) [Example 35, [rac]-4-{[2-(4-Chloro-phenyl)-5,6-difluoro-2H-indazol-3-yl]-cyclohexyl-methoxy}-3-fluoro-benzonitrile], 870 nM; under `Fc1cc2nn(-c3ccc(Cl)cc3)c(C(COc3ccc(-c4nnn[nH]4)cc3F)C3CCCCC3)c2cc1F` (racemic) [Example 36, [rac]-2-(4-Chloro-phenyl)-3-{1-cyclohexyl-2-[2-fluoro-4-(2H-tetrazol-5-yl)-phenoxy]-ethyl}-5,6-difluoro-2H-indazole], 400 nM.
`N#Cc1ccc(OCC(c2c3c(nn2-c2ccc(Cl)cc2)CCCC3)C2CCCCC2)c(F)c1` (racemic) [Example 37, [rac]-4-{2-[2-(4-Chloro-phenyl)-4,5,6,7-tetrahydro-2H-indazol-3-yl]-2-cyclohexyl-ethoxy}-3-fluoro-benzonitrile] displayed an IC50 of 3480 nM.
On to `Fc1cc(-c2nnn[nH]2)ccc1OCC(c1c2c(nn1-c1ccc(Cl)cc1)CCCC2)C1CCCCC1` (racemic) [Example 38, [rac]-2-(4-Chloro-phenyl)-3-{1-cyclohexyl-2-[2-fluoro-4-(1H-tetrazol-5-yl)-phenoxy]-ethyl}-4,5,6,7-tetrahydro-2H-indazole], for which the half-maximal inhibitory concentration (IC50) was 109 nM.
`Cc1cc(C(=O)O)cc(C)c1OCC(c1c2c(nn1-c1ccc(Cl)cc1)CCCC2)C1CCCCC1` (racemic) [Example 40, [rac]-4-{2-[2-(4-Chloro-phenyl)-4,5,6,7-tetrahydro-2H-indazol-3-yl]-2-cyclohexyl-ethoxy}-3,5-dimethyl-benzoic acid] registered a 50% inhibitory concentration (IC50) of 360 nM.
Take `N#Cc1ccc(COC(c2c3cc(F)c(F)cc3nn2-c2ccc(Cl)cc2)C2CCCCC2)c(F)c1` (racemic) [Example 41, [rac]-4-{[2-(4-Chloro-phenyl)-5,6-difluoro-2H-indazol-3-yl]-cyclohexyl-methoxymethyl}-3-fluoro-benzonitrile]: the IC50 came to 7130 nM.
Regarding `Fc1cc2nn(-c3ccc(Cl)cc3)c(C(OCc3ccc(-c4nnn[nH]4)cc3F)C3CCCCC3)c2cc1F` (racemic) [Example 42, [rac]-2-(4-Chloro-phenyl)-3-{cyclohexyl-[2-fluoro-4-(2H-tetrazol-5-yl)-benzyloxy]-methyl}-5,6-difluoro-2H-indazole], the IC50 is 14 nM.
On to `Cc1cc(C(=O)O)cc(C)c1OCC(c1c2cc(F)c(F)cc2nn1-c1ccc(Cl)cc1)C1CCCCC1` (racemic) [Example 43, [rac]-4-{2-[2-[4-Chloro-phenyl]-5,6-difluoro-2H-indazol-3-yl]-2-cyclohexyl-ethoxy}-3,5-dimethyl-benzoic acid], for which the IC50 is 29 nM.
In turn, `N#Cc1ccc(COC(c2c3c(nn2-c2ccc(Cl)cc2)CCCC3)C2CCCCC2)cc1` (racemic) [Example 44, [rac]-4-{[2-(4-Chloro-phenyl)-4,5,6,7-tetrahydro-2H-indazol-3-yl]-cyclohexyl-methoxymethyl}-benzonitrile] returned a half-maximal inhibitory concentration (IC50) of 5620 nM.
`Clc1ccc(-n2nc3ccccc3c2C(OCc2ccc(-c3nnn[nH]3)cc2)C2CCCCC2)cc1` (racemic) [Example 47, [rac]-2-(4-Chloro-phenyl)-3-{cyclohexyl-[4-(2H-tetrazol-5-yl)-benzyloxy]-methyl}-2H-indazole]: the IC50 amounted to 2 nM.
Under `Fc1cc2nn(-c3ccc(Cl)cc3)c(C(OCc3ccc(-c4nnn[nH]4)cc3)C3CCCCC3)c2cc1F` (racemic) [Example 49, [rac]-2-(4-Chloro-phenyl)-3-{cyclohexyl-[4-(2H-tetrazol-5-yl)-benzyloxy]-methyl}-5,6-difluoro-2H-indazole] stands 4 nM.
Under `Fc1cc2nn(-c3ccc(Cl)cc3)c(C(Oc3ccc(-c4nnn[nH]4)cc3F)C3CCCCC3)c2cc1F` (racemic) [Example 50, [rac]-2-(4-Chloro-phenyl)-3-{cyclohexyl-[2-fluoro-4-(1H-tetrazol-5-yl)-phenoxy]-methyl}-5,6-difluoro-2H-indazole] stands 58 nM.

Values taken from US8008505B2, “Indazole or 4,5,6,7-tetrahydro-indazole derivatives” (Hoffmann-La Roche Inc., priority 2008, dated 2011).
